Where “and” joins values, the source holds several entries; their conditions need not be identical. Equal entries are not always repeated.
Tested on: parturition in the rat
Assay: Parturition with test compound and progesterone antagonist RU-486 (Example 3)
Assay type: in vivo, Sprague-Dawley rat
Conditions: test compound 20 mg/kg/day (Group 3)
Protocol: In order to determine if the effects in the experiments conducted in Examples 1 and 2 were due to decreased progesterone catabolism associated with inhibition of 5α-reductase by the 5α-reductase type 1 inhibitor 3-oxo-4-aza-4,7β-dimethyl-16β-(4-chlorophenoxy)-5α-androstane ("test compound"), the following study was performed with the 5α-reductase inhibitor 3-oxo-4-aza-4,7β-dimethyl-16β-(4-chlorophenoxy)-5α-androstane and the progesterone antagonist RU-486.
Fifty-six pregnant female Sprague-Dawley rats (Charles River Laboratories, Raleigh, N.C.), approximately 10.5 weeks old weighing from 212 to 319 grams were employed in the study. They were fed and housed as described in EXAMPLE 1. The females were assigned to the following groups based on a weight independent random allocation scheme:
Control (Control article)
test compound @ 20 mg/kg/day
A dose of 10 mg/kg off RU-486 was selected based on the studies of Abdellilah et al., Progesterone and Mifepristone modify principally the response of circular myometrium to oxytocin in preparturient rats: comparison with response to acetylcholine and to calcium J. Pharmacol. and Exp. Therp.
The drugs were administered by oral gavage. The control article and vehicle consisted of 0.5% methylcellulose in deionized water with 0.02% sodium lauryl sulfate (SLS) and were prepared on a weekly basis and refrigerated when not in use. The test compound formulation (4 mg/mL, in vehicle) was prepared on a weekly basis and was refrigerated when not in use. The RU-486 formulation (2 mg base compound/mL, in 0.5% methylcellulose in deionized water) was prepared on a daily basis.

C[C@H]1C[C@H]2N(C)C(=O)CC[C@]2(C)[C@H]2CC[C@]3(C)C[C@@H](Oc4ccc(Cl)cc4)C[C@H]3[C@H]12 [test compound, 3-oxo-4-aza-4,7β-dimethyl-16β-(4-chlorophenoxy)-5α-androstane]
number of females completing parturition (delivery day GD 22.0): 1 | number of females completing parturition (delivery day GD 23.0): 2 | number of females completing parturition (delivery day GD 24): 3 | Sacrificed Early (on GD 24 due to failure to initiate or complete parturition): 7 | females that failed to initiate or complete parturition: drug related increase in females that failed to initiate or complete parturition | Mean Length of Gestation ± SD (only females completing delivery, 20 mg/kg/day): 23.3 days and 23.3 ± 0.8 days

— patent publication US5872126A, “Methods and compositions for treating preterm labor” (priority 1997, dated 1999)
